Source: paper PMC7026418, “The kinase polypharmacology landscape of clinical PARP inhibitors” (Scientific Reports, 2020)
Read-outs that look alike come from different tables or passages of the source. Values belong to the molecule of their own block, whether it stands above or below them.

How the values were obtained:
Assay in all cases: biochemical
Set-up in all cases: DiscoveRx KINOMEscan active site-directed competition binding; percent of control kinase bound to immobilised ligand
[1] = target: T1, RPS6KA4(Kin.Dom.2-C-terminal) (Homo sapiens, UniProt O75676)
T1 construct: Kin.Dom.2-C-terminal
T1 sequence (O75676 whole entry): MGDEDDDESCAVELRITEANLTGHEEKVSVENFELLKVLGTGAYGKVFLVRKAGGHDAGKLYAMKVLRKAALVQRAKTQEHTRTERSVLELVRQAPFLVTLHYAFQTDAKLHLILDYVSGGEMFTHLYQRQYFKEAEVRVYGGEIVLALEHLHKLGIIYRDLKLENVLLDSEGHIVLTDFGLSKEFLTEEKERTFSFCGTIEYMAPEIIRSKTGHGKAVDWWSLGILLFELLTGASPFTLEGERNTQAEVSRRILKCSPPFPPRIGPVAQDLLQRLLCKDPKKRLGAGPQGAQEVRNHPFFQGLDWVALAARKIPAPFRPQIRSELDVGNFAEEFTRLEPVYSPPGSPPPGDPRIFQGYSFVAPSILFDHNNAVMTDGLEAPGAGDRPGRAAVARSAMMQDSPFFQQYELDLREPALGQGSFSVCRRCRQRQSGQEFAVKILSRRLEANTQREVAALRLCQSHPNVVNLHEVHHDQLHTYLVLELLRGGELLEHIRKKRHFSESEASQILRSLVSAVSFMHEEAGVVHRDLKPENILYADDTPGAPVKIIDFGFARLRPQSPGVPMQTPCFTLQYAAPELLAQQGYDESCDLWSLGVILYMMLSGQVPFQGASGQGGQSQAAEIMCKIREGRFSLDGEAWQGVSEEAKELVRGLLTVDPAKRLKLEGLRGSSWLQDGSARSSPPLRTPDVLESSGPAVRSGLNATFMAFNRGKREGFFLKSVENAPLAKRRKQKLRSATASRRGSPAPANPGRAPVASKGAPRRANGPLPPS

GCN2(Kin.Dom.2,S808G) = target: T2, GCN2(Kin.Dom.2,S808G) (Homo sapiens, UniProt Q9P2K8, S808G)
T2 construct: gene EIF2AK4; Kin.Dom.2
T2 sequence (Q9P2K8 whole entry S808G): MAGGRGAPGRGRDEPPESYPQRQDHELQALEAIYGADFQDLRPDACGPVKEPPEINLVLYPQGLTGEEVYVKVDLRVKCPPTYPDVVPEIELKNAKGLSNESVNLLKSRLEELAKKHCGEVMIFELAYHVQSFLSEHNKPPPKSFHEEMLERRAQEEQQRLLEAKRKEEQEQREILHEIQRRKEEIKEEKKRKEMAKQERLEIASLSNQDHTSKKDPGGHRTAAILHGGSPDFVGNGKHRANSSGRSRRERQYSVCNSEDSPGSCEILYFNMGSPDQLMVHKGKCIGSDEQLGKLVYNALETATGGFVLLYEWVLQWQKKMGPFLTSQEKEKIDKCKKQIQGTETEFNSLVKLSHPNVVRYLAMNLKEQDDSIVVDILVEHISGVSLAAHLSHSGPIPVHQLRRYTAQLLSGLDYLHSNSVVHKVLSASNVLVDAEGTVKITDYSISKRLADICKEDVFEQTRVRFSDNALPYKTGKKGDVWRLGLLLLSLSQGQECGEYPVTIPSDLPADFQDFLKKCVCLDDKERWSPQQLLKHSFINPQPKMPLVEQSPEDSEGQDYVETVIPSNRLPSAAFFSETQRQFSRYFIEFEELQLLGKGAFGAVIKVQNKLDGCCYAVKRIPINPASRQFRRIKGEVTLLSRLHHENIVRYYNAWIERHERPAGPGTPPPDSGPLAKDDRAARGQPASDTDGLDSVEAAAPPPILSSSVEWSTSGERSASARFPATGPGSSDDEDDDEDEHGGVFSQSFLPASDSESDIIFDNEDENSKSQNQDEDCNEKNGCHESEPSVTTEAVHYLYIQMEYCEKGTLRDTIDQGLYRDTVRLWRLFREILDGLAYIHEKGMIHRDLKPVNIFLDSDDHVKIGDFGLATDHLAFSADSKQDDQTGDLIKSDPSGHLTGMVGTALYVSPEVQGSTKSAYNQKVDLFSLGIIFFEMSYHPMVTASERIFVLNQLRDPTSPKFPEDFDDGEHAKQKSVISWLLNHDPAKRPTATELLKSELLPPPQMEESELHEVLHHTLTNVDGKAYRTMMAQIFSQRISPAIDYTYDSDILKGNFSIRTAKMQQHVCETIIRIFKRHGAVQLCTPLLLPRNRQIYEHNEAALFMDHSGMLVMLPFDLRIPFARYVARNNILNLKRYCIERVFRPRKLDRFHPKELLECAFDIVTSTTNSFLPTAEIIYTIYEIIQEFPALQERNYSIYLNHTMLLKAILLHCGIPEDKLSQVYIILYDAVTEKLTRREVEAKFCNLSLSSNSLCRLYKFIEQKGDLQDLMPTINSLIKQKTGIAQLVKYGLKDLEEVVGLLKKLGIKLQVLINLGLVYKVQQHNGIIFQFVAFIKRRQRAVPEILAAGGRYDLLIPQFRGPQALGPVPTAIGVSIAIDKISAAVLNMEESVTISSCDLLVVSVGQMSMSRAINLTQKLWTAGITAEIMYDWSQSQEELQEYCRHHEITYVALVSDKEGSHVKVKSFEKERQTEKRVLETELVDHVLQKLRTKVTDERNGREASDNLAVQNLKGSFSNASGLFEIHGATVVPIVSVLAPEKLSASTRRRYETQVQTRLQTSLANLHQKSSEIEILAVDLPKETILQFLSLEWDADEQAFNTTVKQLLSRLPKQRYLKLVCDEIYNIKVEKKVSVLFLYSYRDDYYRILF

PIM3 = PIM3 (Homo sapiens, UniProt Q86V86)
TAOK3 = target: T3, TAOK3 (Homo sapiens, UniProt Q9H2K8)
T3 sequence (Q9H2K8 1-898): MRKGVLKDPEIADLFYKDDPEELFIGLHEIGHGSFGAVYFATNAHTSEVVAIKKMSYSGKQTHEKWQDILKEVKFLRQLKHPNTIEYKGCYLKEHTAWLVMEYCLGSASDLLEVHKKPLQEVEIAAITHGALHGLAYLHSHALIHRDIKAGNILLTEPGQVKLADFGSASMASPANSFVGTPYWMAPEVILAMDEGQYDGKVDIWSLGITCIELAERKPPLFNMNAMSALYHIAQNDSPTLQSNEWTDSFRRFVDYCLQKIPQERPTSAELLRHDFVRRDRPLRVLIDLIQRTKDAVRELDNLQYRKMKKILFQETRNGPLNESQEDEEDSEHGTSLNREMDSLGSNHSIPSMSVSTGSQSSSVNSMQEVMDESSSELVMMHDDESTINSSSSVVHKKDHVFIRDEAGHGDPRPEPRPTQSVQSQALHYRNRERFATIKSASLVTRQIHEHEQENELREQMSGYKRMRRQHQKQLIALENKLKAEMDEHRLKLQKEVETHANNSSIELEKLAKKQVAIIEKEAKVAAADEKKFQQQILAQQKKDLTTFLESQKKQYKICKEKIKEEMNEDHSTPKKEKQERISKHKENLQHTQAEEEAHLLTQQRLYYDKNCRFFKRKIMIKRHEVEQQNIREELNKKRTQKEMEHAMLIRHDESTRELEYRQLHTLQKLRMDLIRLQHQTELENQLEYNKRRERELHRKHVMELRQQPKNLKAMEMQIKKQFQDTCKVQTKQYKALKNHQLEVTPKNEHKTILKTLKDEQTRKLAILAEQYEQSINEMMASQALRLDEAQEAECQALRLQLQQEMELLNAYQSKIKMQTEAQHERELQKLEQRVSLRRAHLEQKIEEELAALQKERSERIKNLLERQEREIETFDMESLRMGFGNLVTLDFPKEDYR

ACVR2A = ACVR2A (Homo sapiens, UniProt P27037)
ACVR2A, sequence (P27037 whole entry): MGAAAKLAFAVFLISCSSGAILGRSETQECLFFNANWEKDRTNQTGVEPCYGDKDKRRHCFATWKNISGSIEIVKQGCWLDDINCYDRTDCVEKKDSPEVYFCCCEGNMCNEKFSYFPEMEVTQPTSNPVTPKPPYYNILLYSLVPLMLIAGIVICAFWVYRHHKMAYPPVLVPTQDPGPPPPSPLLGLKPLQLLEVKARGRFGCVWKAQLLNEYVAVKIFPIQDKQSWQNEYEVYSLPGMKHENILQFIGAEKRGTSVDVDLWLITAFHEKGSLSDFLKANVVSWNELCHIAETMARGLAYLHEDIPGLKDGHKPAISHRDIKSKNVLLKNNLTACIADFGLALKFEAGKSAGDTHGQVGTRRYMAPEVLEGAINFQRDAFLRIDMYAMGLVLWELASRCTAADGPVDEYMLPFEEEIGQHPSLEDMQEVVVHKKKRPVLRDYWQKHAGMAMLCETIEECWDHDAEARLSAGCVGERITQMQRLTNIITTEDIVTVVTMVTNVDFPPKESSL

MERTK = target: T4, MERTK (Homo sapiens, UniProt Q12866)
T4 sequence (Q12866 1-999): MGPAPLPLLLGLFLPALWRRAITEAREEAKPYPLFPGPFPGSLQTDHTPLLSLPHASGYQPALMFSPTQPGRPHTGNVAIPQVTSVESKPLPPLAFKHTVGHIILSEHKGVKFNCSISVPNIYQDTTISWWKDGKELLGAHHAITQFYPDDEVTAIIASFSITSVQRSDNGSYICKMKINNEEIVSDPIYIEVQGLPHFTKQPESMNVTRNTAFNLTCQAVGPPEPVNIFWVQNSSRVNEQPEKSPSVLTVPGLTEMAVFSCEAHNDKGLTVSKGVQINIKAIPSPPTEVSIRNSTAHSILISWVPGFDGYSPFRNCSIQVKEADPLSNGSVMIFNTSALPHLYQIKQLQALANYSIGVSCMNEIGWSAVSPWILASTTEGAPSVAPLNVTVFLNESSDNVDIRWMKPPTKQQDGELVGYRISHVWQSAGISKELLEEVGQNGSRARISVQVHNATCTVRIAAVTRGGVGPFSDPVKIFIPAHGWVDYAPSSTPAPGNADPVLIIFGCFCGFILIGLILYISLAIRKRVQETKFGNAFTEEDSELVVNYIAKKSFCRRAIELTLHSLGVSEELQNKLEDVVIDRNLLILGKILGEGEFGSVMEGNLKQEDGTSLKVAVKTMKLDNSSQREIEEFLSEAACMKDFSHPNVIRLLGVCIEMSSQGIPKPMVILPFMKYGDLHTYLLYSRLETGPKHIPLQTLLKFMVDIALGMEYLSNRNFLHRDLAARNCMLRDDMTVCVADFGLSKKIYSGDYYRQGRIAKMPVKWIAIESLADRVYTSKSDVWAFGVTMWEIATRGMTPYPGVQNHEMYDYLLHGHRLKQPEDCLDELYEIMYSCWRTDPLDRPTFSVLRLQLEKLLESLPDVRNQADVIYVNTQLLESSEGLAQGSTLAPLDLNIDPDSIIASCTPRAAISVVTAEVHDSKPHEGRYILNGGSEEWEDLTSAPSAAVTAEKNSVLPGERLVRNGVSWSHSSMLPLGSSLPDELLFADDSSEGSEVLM

QSK = target: T5, QSK (Homo sapiens, UniProt Q9Y2K2)
T5 construct: gene SIK3
T5 sequence (Q9Y2K2 whole entry): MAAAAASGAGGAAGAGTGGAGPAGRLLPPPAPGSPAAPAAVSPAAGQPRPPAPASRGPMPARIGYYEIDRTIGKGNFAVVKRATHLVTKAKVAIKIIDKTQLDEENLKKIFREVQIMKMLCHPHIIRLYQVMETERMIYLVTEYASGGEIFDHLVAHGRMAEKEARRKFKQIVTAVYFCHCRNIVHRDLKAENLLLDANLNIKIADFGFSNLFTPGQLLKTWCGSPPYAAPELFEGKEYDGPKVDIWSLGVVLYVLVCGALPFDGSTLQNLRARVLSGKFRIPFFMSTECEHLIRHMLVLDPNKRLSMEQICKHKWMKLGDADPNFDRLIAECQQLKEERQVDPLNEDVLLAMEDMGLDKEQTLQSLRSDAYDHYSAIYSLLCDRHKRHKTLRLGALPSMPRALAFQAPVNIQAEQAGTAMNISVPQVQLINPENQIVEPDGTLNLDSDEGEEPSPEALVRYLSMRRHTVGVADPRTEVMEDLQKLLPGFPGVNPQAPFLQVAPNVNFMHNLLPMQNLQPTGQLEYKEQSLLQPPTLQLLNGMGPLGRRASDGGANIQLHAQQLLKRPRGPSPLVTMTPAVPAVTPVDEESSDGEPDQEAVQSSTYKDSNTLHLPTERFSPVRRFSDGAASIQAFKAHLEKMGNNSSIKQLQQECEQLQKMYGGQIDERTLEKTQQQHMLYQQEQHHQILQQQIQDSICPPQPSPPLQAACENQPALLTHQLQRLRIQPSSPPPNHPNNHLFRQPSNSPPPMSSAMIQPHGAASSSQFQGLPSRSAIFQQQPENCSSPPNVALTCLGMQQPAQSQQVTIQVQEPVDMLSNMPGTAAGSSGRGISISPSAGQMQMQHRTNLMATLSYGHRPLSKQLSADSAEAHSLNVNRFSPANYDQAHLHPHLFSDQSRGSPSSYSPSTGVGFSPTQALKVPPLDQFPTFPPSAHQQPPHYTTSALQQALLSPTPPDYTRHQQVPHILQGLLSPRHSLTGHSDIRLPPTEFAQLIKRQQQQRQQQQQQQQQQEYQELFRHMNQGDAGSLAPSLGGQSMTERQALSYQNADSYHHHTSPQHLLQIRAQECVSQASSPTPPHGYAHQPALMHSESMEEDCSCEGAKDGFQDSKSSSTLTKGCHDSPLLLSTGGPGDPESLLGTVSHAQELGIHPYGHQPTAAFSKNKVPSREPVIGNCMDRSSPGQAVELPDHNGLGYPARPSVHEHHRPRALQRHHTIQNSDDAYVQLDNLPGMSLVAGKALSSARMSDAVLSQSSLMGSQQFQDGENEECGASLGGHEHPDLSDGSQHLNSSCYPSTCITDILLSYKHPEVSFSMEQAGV

[2] = read-out: Olaparib / %Ctrl @ 10000nM
[3] = read-out: Talazoparib (BMN 673) / %Ctrl @ 10000nM
[4] = read-out: Rucaparib / %Ctrl @ 10000nM, binding competition, % of control
[5] = read-out: Niraparib (MK-4827) / %Ctrl @ 10000nM

percent of control binding at 10 µM [1, 2]: 92%
percent of control binding at 10 µM (GCN2(Kin.Dom.2,S808G); [2]): 93%
percent of control binding at 10 µM (PIM3; [2]): 99%
percent of control binding at 10 µM (TAOK3; [2]): 94%
percent of control binding at 10 µM (ACVR2A; [2]): 95%
percent of control binding at 10 µM (MERTK; [2]): 83%
percent of control binding at 10 µM (QSK; [2]): 83%
SMILES: O=C(c1cc(Cc2n[nH]c(=O)c3ccccc23)ccc1F)N1CCN(C(=O)C2CC2)CC1 [Olaparib]

percent of control binding at 10 µM [1, 3]: 100%
percent of control binding at 10 µM (GCN2(Kin.Dom.2,S808G); [3]): 100%
percent of control binding at 10 µM (PIM3; [3]): 100%
percent of control binding at 10 µM (TAOK3; [3]): 100%
percent of control binding at 10 µM (ACVR2A; [3]): 100%
percent of control binding at 10 µM (MERTK; [3]): 98%
percent of control binding at 10 µM (QSK; [3]): 75%
SMILES: Cn1ncnc1[C@H]1c2n[nH]c(=O)c3cc(F)cc(c23)N[C@@H]1c1ccc(F)cc1 [Talazoparib]

percent of control binding at 10 µM [1, 4]: 91%
percent of control binding at 10 µM (GCN2(Kin.Dom.2,S808G); [4]): 55%
percent of control binding at 10 µM (TAOK3; [4]): 91%
percent of control binding at 10 µM (ACVR2A; [4]): 100%
percent of control binding at 10 µM (MERTK; [4]): 64%
percent of control binding at 10 µM (QSK; [4]): 77%
SMILES: CNCc1ccc(-c2[nH]c3cc(F)cc4c3c2CCNC4=O)cc1 [Rucaparib]

SMILES: NC(=O)c1cccc2cn(-c3ccc([C@@H]4CCCNC4)cc3)nc12 [Niraparib]
percent of control binding at 10 µM [1, 5]: 80%
percent of control binding at 10 µM (GCN2(Kin.Dom.2,S808G); [5]): 83%
percent of control binding at 10 µM (PIM3; [5]): 17%
percent of control binding at 10 µM (TAOK3; [5]): 100%
percent of control binding at 10 µM (ACVR2A; [5]): 99%
percent of control binding at 10 µM (MERTK; [5]): 99%
percent of control binding at 10 µM (QSK; [5]): 93%
